The subject of the assay is Bleomycin-induced pulmonary fibrosis. Put plainly: Bleomycin-induced pulmonary fibrosis in mice. It counts as in vivo, mouse. The following applies: 30 mg/kg orally qd, relative to AM1476. The method, then: Pulmonary fibrosis was induced by a single intratracheal instillation of bleomycin (25 μg in 50 μL of 0.9% NaCl).[12] Treatment was initiated at two weeks after the first injection of bleomycin. AM1476 was administered orally at 1, 3, or 10 mg/kg once daily. Solvent (double‐distilled water) was used as a control, and nintedanib at 30 mg/kg orally every day (qd) was included as a comparator. The outcome was analyzed at two and four weeks after the first injection of bleomycin. Mice injected with 0.9% NaCl, the vehicle of bleomycin, served as nonfibrotic controls. Eight mice per group were analyzed.
Skin samples were fixed in 4% formalin for six hours and embedded in paraffin. Five‐micrometer sections were cut and stained with hematoxylin and eosin (H&E). The dermal thickness was quantified on H&E‐stained sections using images captured with a light microscope (Nikon eclipse 80i) at 100‐fold magnification by manually measuring the distance between the epidermal‐dermal junction and the dermal‐subcutaneous fat junction at four sites per mouse.[15], [16] For lung samples, the whole left lung was fixed in 4% formalin for six hours and embedded in paraffin. Five‐micrometer sections were cut and stained with trichrome and sirius red. Histologic readouts were evaluation of the fibrotic area as the percentage of the total lung area in sirius red–stained sections (two sections per mouse) and quantification of pulmonary changes using the Ashcroft score (four sections per mouse).[17], [18]
The amount of collagen protein in skin and lung samples was determined by hydroxyproline assay.[19], [20] After digestion in 6 M HCl for three hours at 120°C, the pH of the samples was adjusted to a pH range of 6–7 with 6 M NaOH. Afterward, 0.06 M chloramine T was added to each sample and incubated for 20 minutes at room temperature. Next, 3.15 M perchloric acid and 20% p‐dimethylaminobenzaldehyde were added, and samples were incubated for an additional 20 minutes at 60°C. The absorbance was determined at 557 nm with a Spectra MAX 190 microplate spectrophotometer. Absolute values were determined using a standard curved generated with type I collagen (Sigma‐Aldrich).

For the compound `COC(=O)c1ccc2c(c1)NC(=O)/C2=C(\Nc1ccc(N(C)C(=O)CN2CCN(C)CC2)cc1)c1ccccc1` [nintedanib, reference compound], the “antifibrotic effects across the different readouts” value was “comparable”.

These data come from PMC12311259, “Antifibrotic effects of specific targeting of the 5‐hydroxytryptamine 2B receptor (5‐HT2BR) in murine models and ex vivo models of scleroderma skin” (Arthritis & Rheumatology (Hoboken, N.j.), 2025).
